Measurements taken from patent publication US11964988B2, “Fused heterocyclic compounds as RET kinase inhibitors” (ARRAY BIOPHARMA INC., priority 2018, dated 2024).
Where a chain is given by its changes, count along the chain named. Like-named read-outs stand apart in the source and are kept apart here.

What was measured:
RET kinase V804M = RET kinase V804M (Homo sapiens, UniProt P07949, V804M); experiment: RET Enzyme Assay (CisBio HTRF KinEASE-TK), V804M; type: biochemical; settings: read-out: RET V804M Enz FRET IC50
RET kinase Wild Type [1] = biological target: T1, RET kinase Wild Type (Homo sapiens, UniProt P07949);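 further: HTRF kinase activity assay on RET enzyme, 1 h reaction at 22 °C, dual-wavelength readout as percent of control, DMSO-only wells as 100%, pre-quenched reactions as 0%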
G810R mutant RET kinase [2] = biological target: T2, G810R mutant RET kinase (Homo sapiens, UniProt P07949, G810R);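 further: HTRF KinEASE-TK enzymatic assay with 1 nM recombinant RET G810R, 1 h at 22 °C, dual-wavelength ratiometric readout, 100% control without compound, 0% from pre-quenched reactions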
Protocol: (§2) The potency of compounds inhibiting several different RET kinase forms (Wild Type, V804M, G810R, & G810S) were determined using CisBio's HTRF® KinEASE™-TK assay technology. […] After a 1 hour incubation at 22° C., the extent of reaction was determined using a PerkinElmer EnVision multimode plate reader via HTRF dual wavelength detection, and the percent of control (POC) was calculated using a ratiometric emission factor. One hundred POC was determined using DMSO only samples (no compound present), and 0 POC was determined using pre-quenched control reactions.
(§3) The potency of a compound inhibiting G810R or G810S mutant RET kinase was determined using CisBio's HTRF® KinEASE™-TK assay technology. The assays contained G810R or G810S mutant RET produced at Array Biopharma, Inc. (1 nM enzyme). […] After a 1-h incubation at 22° C., the extent of reaction was determined using a PerkinElmer EnVision multimode plate reader via HTRF dual wavelength detection, and the percent of control (POC) was calculated using a ratiometric emission factor. One hundred POC was determined using no test compounds, and 0 POC was determined using pre-quenched control reactions.

G810S mutant RET kinase [3] = biological target: T3, G810S mutant RET kinase (Homo sapiens, UniProt P07949, G810S);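 further: HTRF KinEASE-TK kinase assay with recombinant enzyme, 1 h at 22 °C, dual-wavelength ratiometric read-out, percent of control (DMSO-only = 100, pre-quenched reaction = 0)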
Protocol: as §2, §3

[4] = biological target: T4, HEK-293 cells expressing a Kif5b-RET fusion protein (Homo sapiens, UniProt P07949); experiment: RET Cell Assay (phospho-RET Tyr1062); type: cell-based; settings: HEK-293 Kif5b-RET, 1 hour incubation, phospho-RET normalized to GAPDH; read-out: KIF5B-RET pTYR1062 Cell IC50
T4 construct: KIF5B (N-terminal portion incl. coiled-coil); expressed in transfected cells; host or cells: HEK-293; the other entry of the earlier key: KIF5B (P33176, Kinesin-1 heavy chain)
T4 sequence (P07949 713-1063 limits assumed): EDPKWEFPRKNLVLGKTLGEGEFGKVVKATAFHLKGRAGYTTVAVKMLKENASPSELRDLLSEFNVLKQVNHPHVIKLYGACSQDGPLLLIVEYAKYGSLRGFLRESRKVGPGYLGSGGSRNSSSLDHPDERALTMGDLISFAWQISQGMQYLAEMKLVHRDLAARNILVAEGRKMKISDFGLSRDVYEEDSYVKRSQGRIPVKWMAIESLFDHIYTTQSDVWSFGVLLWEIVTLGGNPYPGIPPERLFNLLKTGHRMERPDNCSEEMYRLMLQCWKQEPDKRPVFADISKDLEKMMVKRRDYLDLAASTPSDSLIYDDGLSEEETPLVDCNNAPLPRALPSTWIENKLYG
Summary of the method: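 Kif5b-RET HEK-293 cells treated 1 hour with compound in DMEM (0.5% DMSO final), then fixed and immunostained for phospho-RET Tyr1062, normalized to GAPDH by infrared fluorescence. IC50 where the 4-parameter logistic fit of POC crosses 50.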

[5] = biological target: T5, HEK-293 cells expressing a G810R mutant RET Kif5b-RET fusion protein (Homo sapiens, UniProt P07949, G810R); experiment: RET G810R Mutant Cell Assay (phospho-RET Tyr1062); type: cell-based; settings: HEK-293 Kif5b-RET G810R, 1 hour incubation, phospho-RET normalized to GAPDH
T5 construct: KIF5B (N-terminal portion incl. coiled-coil); expressed in transfected cells; host or cells: HEK-293; the other entry of the earlier key: KIF5B (P33176, Kinesin-1 heavy chain)
T5 sequence (P07949 713-1063 G810R limits assumed): T4 sequence (P07949 713-1063 limits assumed) with G98R
Summary of the method: (§1)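 Engineered HEK-293 cells were treated 1 h with compound in DMEM, 0.5% DMSO final, then fixed, permeabilized and immunostained for phospho-RET Tyr1062 and GAPDH. In-cell fluorescence pRET signal was normalized to GAPDH; IC50 taken from a 4-parameter logistic fit of percent of control at 50 POC.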

[6] = biological target: T6, HEK-293 cells expressing a G810S mutant RET Kif5b-RET fusion protein (Homo sapiens, UniProt P07949, G810S); experiment: RET G810S Mutant Cell Assay (phospho-RET Tyr1062); type: cell-based; settings: HEK-293 Kif5b-RET G810S, 1 hour incubation, phospho-RET normalized to GAPDH
T6 construct: KIF5B (N-terminal portion incl. coiled-coil); expressed in transfected cells; host or cells: HEK-293
T6 sequence (P07949 713-1063 G810S limits assumed): T4 sequence (P07949 713-1063 limits assumed) with G98S
Summary of the method: as §1

RET kinase Wild Type [7] = biological target: T1, RET kinase Wild Type; experiment: biochemical
G810R mutant RET kinase [8] = biological target: T2, G810R mutant RET kinase; experiment: biochemical
Protocol: as §2, §3

G810S mutant RET kinase [9] = biological target: T3, G810S mutant RET kinase; experiment: biochemical
Protocol: as §2, §3

[10] = V804M RET, 1 mM ATP, averaged IC50

T2 sequence (P07949 29-1114 G810R): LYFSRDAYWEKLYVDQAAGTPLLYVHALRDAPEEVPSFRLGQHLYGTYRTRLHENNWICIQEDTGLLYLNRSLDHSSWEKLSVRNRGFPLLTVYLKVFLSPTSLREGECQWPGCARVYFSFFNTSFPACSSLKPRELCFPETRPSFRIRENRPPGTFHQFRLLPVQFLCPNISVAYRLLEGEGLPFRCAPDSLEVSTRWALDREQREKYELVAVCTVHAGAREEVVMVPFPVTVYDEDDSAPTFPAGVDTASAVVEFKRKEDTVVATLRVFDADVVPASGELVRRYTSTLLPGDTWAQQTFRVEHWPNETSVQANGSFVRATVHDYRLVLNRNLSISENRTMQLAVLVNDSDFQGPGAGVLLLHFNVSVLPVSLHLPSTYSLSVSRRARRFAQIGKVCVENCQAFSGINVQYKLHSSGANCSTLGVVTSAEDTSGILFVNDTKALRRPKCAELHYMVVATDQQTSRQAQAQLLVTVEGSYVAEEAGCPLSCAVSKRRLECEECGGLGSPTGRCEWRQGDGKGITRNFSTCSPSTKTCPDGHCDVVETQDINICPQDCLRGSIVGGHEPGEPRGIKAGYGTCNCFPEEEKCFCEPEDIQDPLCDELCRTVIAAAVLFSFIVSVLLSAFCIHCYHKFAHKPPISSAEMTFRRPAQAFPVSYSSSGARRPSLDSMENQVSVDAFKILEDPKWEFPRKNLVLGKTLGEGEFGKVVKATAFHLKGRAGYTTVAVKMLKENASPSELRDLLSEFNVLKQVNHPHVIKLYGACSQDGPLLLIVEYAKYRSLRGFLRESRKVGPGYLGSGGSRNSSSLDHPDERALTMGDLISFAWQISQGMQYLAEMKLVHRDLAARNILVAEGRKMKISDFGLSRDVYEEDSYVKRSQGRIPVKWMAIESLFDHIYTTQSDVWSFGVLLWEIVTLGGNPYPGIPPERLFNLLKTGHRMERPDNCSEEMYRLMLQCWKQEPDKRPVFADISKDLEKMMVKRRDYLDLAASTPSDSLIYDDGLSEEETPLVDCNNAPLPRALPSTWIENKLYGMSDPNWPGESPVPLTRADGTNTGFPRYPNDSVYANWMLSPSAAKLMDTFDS
T1 sequence (P07949 29-1114): as the sequence (P07949 29-1114 G810R) above, with R782G counted along it
RET kinase V804M, sequence (P07949 29-1114 V804M): as the sequence (P07949 29-1114 G810R) above, with V776M, R782G counted along it
T3 sequence (P07949 29-1114 G810S): as the sequence (P07949 29-1114 G810R) above, with R782S counted along it

IC50 (RET kinase V804M; [10]) [µM]	IC50 (RET kinase Wild Type [1]) [µM]	IC50 (G810R mutant RET kinase [2]) [µM]	IC50 (G810S mutant RET kinase [3]) [µM]	IC50 (RET kinase V804M) [µM]	IC50 [4] [µM]	IC50 [5] [µM]	IC50 [6] [µM]	IC50 (RET kinase Wild Type [7]) [µM]	IC50 (G810R mutant RET kinase [8]) [µM]	IC50 (G810S mutant RET kinase [9]) [µM]	Structure (SMILES)
1.94	1.71	4.46	2.32								Nc1ncnc2c1c1c(n2C2CCNC2)CCC(O)c2c-1noc2C1CC1 (stereo not drawn) [Example 132, (Cis)-11-amino-3-cyclopropyl-7-(pyrrolidin-3-yl)-4,5,6,7-tetrahydroisoxazolo[4″,3″:6′,7]cyclohepta[1′,2′:4,5]pyrrolo[2,3-d]pyrimidin-4-ol 2,2,2-trifluoroacetate]
0.505	0.124	0.157	0.425								COC(=O)[C@H]1C[C@H](n2c3c(c4c(N)ncnc42)-c2noc(C4CC4)c2C(=O)CC3)C1 [Example 142, Methyl (1r,3r)-3-(11-amino-3-cyclopropyl-4-oxo-5,6-dihydroisoxazolo[4″,3″:6′,7′]cyclohepta[1′,2′:4,5]pyrrolo[2,3-d]pyrimidin-7(4H)-yl)cyclobutane-1-carboxylate]
				4.46	0.026	0.047	0.047	0.073	0.478	0.457	CC(C)n1c2c(c3c(N)ncnc31)-c1cc3ccc(C(=O)NC4(C)CC4)cc3n1CCC2 [Example 97, 1-amino-5-isopropyl-N-(1-methylcyclopropyl)-5,6,7,8-tetrahydropyrimido[5″,4″:4′,5′]pyrrolo[3′,2′: 3,4]azepino[1,2-a]indole-11-carboxamide]
				5.78	0.032	0.089	0.071	0.047	0.202	0.204	CC(C)n1c2c(c3c(N)ncnc31)-c1cc3ccc(C(=O)NC4CC4)cc3n1CCC2 [Example 87, 1-Amino-N-cyclopropyl-5-isopropyl-5,6,7,8-tetrahydropyrimido[5″,4″:4′,5′]pyrrolo[3′,2′:3,4]azepino[1,2-a]indole-11-carboxamide]
0.031	0.02	0.085	0.101		0.073	0.12					C[C@H](n1c2c(c3c(N)ncnc31)-c1noc(C3CC3)c1[C@H](O)CC2)C(F)(F)F (single isomer, unassigned) [Example 145]
				0.021	0.018	0.046	0.065	0.008	0.023	0.019	Nc1ncnc2c1c1c(n2C2CCC(O)C2)CCC(O)c2c-1noc2C1CC1 (stereo not drawn) [Example 129, 11-Amino-3-cyclopropyl-7-(3-hydroxycyclopentyl)-4,5,6,7-tetrahydroisoxazolo[4″,3″:6′,7′]cyclohepta[1′,2′:4,5]pyrrolo[2,3-d]pyrimidin-4-ol]
				0.041	0.022	0.103	0.092	0.013	0.07	0.054	CC(C)n1c2c(c3c(N)ncnc31)-c1noc(C3CC3)c1[C@@H](O)CC2 (single isomer, unassigned) [Example 54]
				0.021	0.01	0.046	0.04	0.008	0.031	0.029	CC(C)n1c2c(c3c(N)ncnc31)-c1noc(C3CC3)c1[C@H](O)CC2 (single isomer, unassigned) [Example 55]
6.2	2.64	6.14	3.4								Nc1ncnc2c1c1c(n2C2CCNC2)CCC(O)c2c-1noc2C1CC1 (stereo not drawn) [Example 133, (Trans)-11-amino-3-cyclopropyl-7-(pyrrolidin-3-yl)-4,5,6,7-tetrahydroisoxazolo[4″,3″:6′,7′]cyclohepta[1′,2′:4,5]pyrrolo[2,3-d]pyrimidin-4-ol 2,2,2-trifluoroacetate]
				0.136	0.033	0.281	0.101	0.031	0.089	0.058	CC1Cc2c(c3c(N)ncnc3n2C(C)C)-c2noc(C3CC3)c2C1O (stereo not drawn) [Example 61, 11-amino-3-cyclopropyl-7-isopropyl-5-methyl-4,5,6,7-tetrahydroisoxazolo[4″,3″:6′,7′]cyclohepta[1′,2′:4,5]pyrrolo[2,3-d]pyrimidin-4-ol]
